Experimental data reported in PubChem BioAssay AID1963870 (Molecular Pharmacology Branch, DTP, NCI, 2024).

Tested on: 292921-168-R-J2-PDC KRAS tumor spheroid viability
Assay: Anticancer human tumor 292921-168-R-J2-PDC patient-derived pancreatic carcinoma cell line growth inhibition [KRAS2]
Details: spheroids with HUVEC and MSC; for IC50: curve of first compound; for viability, T/C: stronger effect = lower value
Method in brief: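 KRAS-mutant tumor cells were grown as spheroids with HUVEC endothelial cells and human MSCs as stroma. Targeted agents were tested alone and with KRAS pathway inhibitors. Doses started at or near clinical Cmax, or 10 microM, descending half-log.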

[1] = second compound 0.1 µM, first compound 0.0316 µM
[2] = second compound 0.1 µM, first compound 0.1 µM
[3] = second compound 0.1 µM, first compound 0.316 µM
[4] = second compound 0.1 µM, first compound 1 µM
[5] = second compound 0.1 µM, first compound 3.16 µM
[6] = second compound 0.1 µM, first compound 10 µM
[7] = second compound 0.316 µM, first compound 0.0316 µM
[8] = second compound 0.316 µM, first compound 0.1 µM
[9] = second compound 0.316 µM, first compound 0.316 µM
[10] = second compound 0.316 µM, first compound 1 µM
[11] = second compound 0.316 µM, first compound 3.16 µM
[12] = second compound 0.316 µM, first compound 10 µM
[13] = second compound 1 µM, first compound 0.0316 µM
[14] = second compound 1 µM, first compound 0.1 µM
[15] = second compound 1 µM, first compound 0.316 µM
[16] = second compound 1 µM, first compound 1 µM
[17] = second compound 1 µM, first compound 3.16 µM
[18] = second compound 1 µM, first compound 10 µM
[19] = second compound 3.16 µM, first compound 0.0316 µM
[20] = second compound 3.16 µM, first compound 0.1 µM
[21] = second compound 3.16 µM, first compound 0.316 µM
[22] = second compound 3.16 µM, first compound 1 µM
[23] = second compound 3.16 µM, first compound 3.16 µM
[24] = second compound 3.16 µM, first compound 10 µM
[25] = second compound 10 µM, first compound 0.0316 µM
[26] = second compound 10 µM, first compound 0.1 µM
[27] = second compound 10 µM, first compound 0.316 µM
[28] = second compound 10 µM, first compound 1 µM
[29] = second compound 10 µM, first compound 3.16 µM
[30] = second compound 10 µM, first compound 10 µM
[31] = second compound 0.1 µM, first compound 0.000316 µM
[32] = second compound 0.1 µM, first compound 0.001 µM
[33] = second compound 0.1 µM, first compound 0.00316 µM
[34] = second compound 0.1 µM, first compound 0.01 µM
[35] = second compound 0.316 µM, first compound 0.000316 µM
[36] = second compound 0.316 µM, first compound 0.001 µM
[37] = second compound 0.316 µM, first compound 0.00316 µM
[38] = second compound 0.316 µM, first compound 0.01 µM
[39] = second compound 1 µM, first compound 0.000316 µM
[40] = second compound 1 µM, first compound 0.001 µM
[41] = second compound 1 µM, first compound 0.00316 µM
[42] = second compound 1 µM, first compound 0.01 µM
[43] = second compound 3.16 µM, first compound 0.000316 µM
[44] = second compound 3.16 µM, first compound 0.001 µM
[45] = second compound 3.16 µM, first compound 0.00316 µM
[46] = second compound 3.16 µM, first compound 0.01 µM
[47] = second compound 10 µM, first compound 0.000316 µM
[48] = second compound 10 µM, first compound 0.001 µM
[49] = second compound 10 µM, first compound 0.00316 µM
[50] = second compound 10 µM, first compound 0.01 µM
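Further: drug exposure lasted seven days after spheroids formed for three days.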
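Wherever viability, T/C is given: percent of DMSO vehicle control viability which is 100%.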

Row | Structure (SMILES) | IC50 (second compound 0.1 µM) | IC50 (second compound 0.316 µM) | IC50 (second compound 1 µM) | IC50 (second compound 3.16 µM) | IC50 (second compound 10 µM) | viability, T/C [1] | viability, T/C [2] | viability, T/C [3] | viability, T/C [4] | viability, T/C [5] | viability, T/C [6] | viability, T/C [7] | viability, T/C [8] | viability, T/C [9] | viability, T/C [13] | viability, T/C [14] | viability, T/C [19] | viability, T/C [20] | viability, T/C [25] | viability, T/C [26] | also measured
1 | CC(C)NCC(C(=O)N1CCN(c2ncnc3c2C(C)CC3O)CC1)c1ccc(Cl)cc1 (stereo not given) + CC1OCC2(CCN(c3cnc(Sc4ccnc(N)c4Cl)c(N)n3)CC2)C1N | 5.03 µM | 3.62 µM | < 0.0316 µM | < 0.0316 µM | < 0.0316 µM | 67.3% | 65.3% | 65% | 67% | 58% | 36.8% | 51.1% | 57% | 56.8% | 46.2% | 42.9% | 36.1% | 36.5% | 33.6% | 33.8% | viability, T/C [10]: 55.7%; viability, T/C [11]: 52.3%; viability, T/C [12]: 31.1%; viability, T/C [15]: 48.1%; viability, T/C [16]: 46.1%; viability, T/C [17]: 39.3%; viability, T/C [18]: 25.9%; viability, T/C [21]: 39.9%; viability, T/C [22]: 41.7%; viability, T/C [23]: 37.4%; viability, T/C [24]: 22.7%; viability, T/C [27]: 39.4%; viability, T/C [28]: 33.8%; viability, T/C [29]: 32.9%; viability, T/C [30]: 20.6%
2 | CC(C)n1nc(-c2ccc3oc(N)nc3c2)c2c(N)ncnc21 + CC1OCC2(CCN(c3cnc(Sc4ccnc(N)c4Cl)c(N)n3)CC2)C1N | 0.00106 µM | < 0.000316 µM | < 0.000316 µM | < 0.000316 µM | < 0.000316 µM | 20.8% | 19.1% | – | – | – | – | 18.4% | 16.6% | – | 17.4% | 14.5% | 14.9% | 12.5% | 12.8% | 11.3% | viability, T/C [31]: 66.5%; viability, T/C [32]: 51.4%; viability, T/C [33]: 35.4%; viability, T/C [34]: 29.4%; viability, T/C [35]: 48.7%; viability, T/C [36]: 38.5%; viability, T/C [37]: 30.5%; viability, T/C [38]: 21.6%; viability, T/C [39]: 44%; viability, T/C [40]: 36.4%; viability, T/C [41]: 26.1%; viability, T/C [42]: 19.3%; viability, T/C [43]: 32.3%; viability, T/C [44]: 28.3%; viability, T/C [45]: 23.7%; viability, T/C [46]: 16.6%; viability, T/C [47]: 27.2%; viability, T/C [48]: 27.8%; viability, T/C [49]: 20.1%; viability, T/C [50]: 17%
3 | CC1(C)CCC(CN2CCN(c3ccc(C(=O)NS(=O)(=O)c4ccc(NCC5CCOCC5)c([N+](=O)[O-])c4)c(Oc4cnc5[nH]ccc5c4)c3)CC2)=C(c2ccc(Cl)cc2)C1 + CC1OCC2(CCN(c3cnc(Sc4ccnc(N)c4Cl)c(N)n3)CC2)C1N | 1.61 µM | 1.43 µM | < 0.0316 µM | < 0.0316 µM | < 0.0316 µM | 77.7% | 81.6% | 71.8% | 69.8% | 21.9% | 11.7% | 59.7% | 65.9% | 64.2% | 46.5% | 51.4% | 38.8% | 40.2% | 33.3% | 32.8% | viability, T/C [10]: 58.9%; viability, T/C [11]: 29.6%; viability, T/C [12]: 7.43%; viability, T/C [15]: 46.1%; viability, T/C [16]: 42.9%; viability, T/C [17]: 17.8%; viability, T/C [18]: 7.41%; viability, T/C [21]: 37.6%; viability, T/C [22]: 39%; viability, T/C [23]: 14.1%; viability, T/C [24]: 7.38%; viability, T/C [27]: 33.2%; viability, T/C [28]: 34.7%; viability, T/C [29]: 13.1%; viability, T/C [30]: 1.65%
4 | CCNC(=O)CC1N=C(c2ccc(Cl)cc2)c2cc(OC)ccc2-n2c(C)nnc21 (stereo not given) + CC1OCC2(CCN(c3cnc(Sc4ccnc(N)c4Cl)c(N)n3)CC2)C1N | 0.287 µM | 0.0484 µM | < 0.0316 µM | < 0.0316 µM | < 0.0316 µM | 69.1% | 60.6% | 48.1% | 40.1% | 29.4% | 27.5% | 53.5% | 45.5% | 31.4% | 45.6% | 43.7% | 37.4% | 34.6% | 33.8% | 31.1% | viability, T/C [10]: 31.7%; viability, T/C [11]: 25.1%; viability, T/C [12]: 19.7%; viability, T/C [15]: 33.5%; viability, T/C [16]: 31.6%; viability, T/C [17]: 19.9%; viability, T/C [18]: 18.3%; viability, T/C [21]: 26.2%; viability, T/C [22]: 23%; viability, T/C [23]: 20%; viability, T/C [24]: 16.1%; viability, T/C [27]: 28.4%; viability, T/C [28]: 23.1%; viability, T/C [29]: 20.9%; viability, T/C [30]: 17.3%
5 | Cn1ncnc1[C@H]1c2n[nH]c(=O)c3cc(F)cc(c23)N[C@@H]1c1ccc(F)cc1 + CC1OCC2(CCN(c3cnc(Sc4ccnc(N)c4Cl)c(N)n3)CC2)C1N | > 0.1 µM | > 0.1 µM | 0.000634 µM | < 0.000316 µM | < 0.000316 µM | 66.3% | 58.2% | – | – | – | – | 59.4% | 51.9% | – | 39.2% | 39.1% | 33.4% | 30.8% | 29.5% | 26.5% | viability, T/C [31]: 84.8%; viability, T/C [32]: 78.6%; viability, T/C [33]: 82.5%; viability, T/C [34]: 76.4%; viability, T/C [35]: 66.1%; viability, T/C [36]: 60.9%; viability, T/C [37]: 65%; viability, T/C [38]: 56%; viability, T/C [39]: 48.7%; viability, T/C [40]: 51.7%; viability, T/C [41]: 49.2%; viability, T/C [42]: 44.4%; viability, T/C [43]: 40.8%; viability, T/C [44]: 39%; viability, T/C [45]: 37.4%; viability, T/C [46]: 36.2%; viability, T/C [47]: 34.5%; viability, T/C [48]: 34.5%; viability, T/C [49]: 32%; viability, T/C [50]: 30.6%
